In general, melting point refers to the temperature, or range, at which the solid turns liquid. For the molecule `CCOc1nc(NCCN2CCCC2)nc(Nc2ccc(F)c(Cl)c2)n1`, the melting point was in the range of 111 to 113 °C.
Next, `C=C(C)C(=O)Oc1cccc(-c2cccc(OC(=O)C(=C)C)c2)c1`: 70 °C.
The figure for `CC(C(=O)O)c1ccc2c(Br)c(OCc3ccc4ccccc4n3)ccc2c1` (configuration not stated) is 210 to 212 °C; for `CN(C)S(=O)(=O)c1c(C(F)(F)F)nn(-c2c(Cl)cc(C(F)(F)F)cc2Cl)c1N` it is 178 to 179 °C.
The figure for `C=C(C)OC(=O)c1ccc(C(=O)OC(=C)C)cc1` is 72 to 73.5 °C.
The molecule `Cc1c(CCC(=O)O)n(Cc2ccc(-n3ccnc3)cc2)c2ccc(F)cc12` registered a melting point of 222 °C.
The figure for `COC(=O)CCCCCSC1=CC(OC2CCCCO2)CC1=O` (configuration not stated) is 41 to 42 °C.
Next, `CCNC(=O)CCCNC(=O)CCCNC(=O)CCCNC(=O)CCCNC(=O)OC(C)(C)C`: 196 to 197 °C.
Next, `CCOC(=O)c1c(Nc2cc(F)ccc2[N+](=O)[O-])sc2ccccc12`: 137 to 140 °C.
Turning to `O=C1Nc2cc(C(F)(F)F)ccc2C1=O`, the melting point fell in the range of 196 to 198 °C.
The figure for `CC(C)Cc1csc(NC(=O)OC(C)(C)C)c1C(=O)O` is 154 to 155 °C.
The figure for `CC(=O)OC1(C(C)=O)CCC2C3C=C(Cl)C4=CC(=O)OC(O)C4(C)C3CCC21C` (configuration not stated) is 276 to 278 °C.
Next, `CNC(=O)n1ncc2ccc(NC(=O)/C=C/c3ccc(C(C)(C)C)cc3)cc21`: 208 to 209 °C; `Fc1ccc(OC2CCN(CCc3c[nH]c4ccc(OCc5ccccc5)cc34)CC2)cc1`: 134 to 136 °C; `COC1(c2ccccc2)OC=C(c2ccc(C(=O)O)cc2)C1=O` (configuration not stated): 212 to 214 °C.
`CCCc1cc(CC(=O)O)ccc1OCc1ccc2ccccc2n1` had a melting point of 135 °C.
Next, `CCCc1nnc(Cc2ccc(N)cc2)o1`: 60 to 61 °C.
In turn, `CC(=O)N1CCC(C(=O)N2CC[C@@H](N(C)C(=O)c3ccc(C4CC4)cc3)[C@H](c3ccc(Cl)c(Cl)c3)C2)CC1` showed a melting point of 129 to 133 °C.
Next, `O=S(=O)(CCNc1ccc(Cl)c(C(F)(F)F)c1)NCCCOc1cccc(CN2CCCCC2)c1`: 115 to 120 °C; `CCCNC(=O)CCCc1ccc2c(c1)c(Cc1ccc(C(=O)NS(=O)(=O)c3ccccc3C)cc1OC)cn2CCC`: 94 to 95 °C.
Next, `CC(C)N(CCOc1ccc(NC(=O)c2c[nH]c3c2C(=O)CCC3)cc1)C(C)C`: 140 to 141 °C; `O=C1OC2=C(COc3ccccc32)C1=O`: 146 to 148 °C.
The figure for `O=[N+]([O-])c1ccc(C2CCOCC2)cc1` is 124 °C; for `O=C(Cc1ccccc1)c1cc(O)c(O)c([N+](=O)[O-])c1` it is 181 to 182 °C.
For `Cc1nc2cc(NC(=O)c3cc4cc(C(F)(F)F)cnc4n3Cc3cccc(F)c3)ccc2s1`, the melting point was 204 to 206 °C.
The figure for `COc1ccc(-c2nc(N)nc(NC(=O)c3cccnc3)n2)c2ccccc12` is 208 to 209 °C; for `N[C@@H]1CCCN([C@@H]2Cc3ccccc3[C@H]2Oc2cc3c(cc2Cl)NC(=O)CC3)C1` it is 184 °C.
Next, `CCCCOc1cc(C(=O)O)cc(N)c1C(=O)c1ccc(Cl)cc1`: 286 to 288 °C; `CSc1ncc2cc(-c3c(Cl)cccc3Cl)c(N)nc2n1`: 250 to 253 °C; `COC(=O)c1c(C(F)(F)F)nc(C(F)(F)F)c(C(=O)OC)c1[Si](C)(C)C`: 29 to 31 °C.
`COC(=O)c1cc2ccc(Cl)cc2n1CC#N` returned a melting point of 177 to 178 °C.
The molecule `CN(c1cccc2cc(-c3ncc(CCC(=O)N4CCOCC4)s3)[nH]c12)S(=O)(=O)c1cccs1` registered a melting point of 160 to 161 °C.
Next, `COc1ccc(-c2cnc(N3CCc4c([nH]c5ccccc45)C3c3ccc4c(c3)OCO4)nc2)cc1OC` (configuration not stated): 173 to 175 °C; `CC(=O)OCC(=O)C1(OC(C)=S)CCC2C3CC(C)C4=CC(=O)C=CC4(C)C3C(O)CC21C` (configuration not stated): 149 to 151 °C.
The figure for `COC(=O)c1ccc(Cn2ncc3ccc(N)cc32)cc1` is 131 to 132 °C; for `CC(C)(O)C#Cc1ncn2c1[C@@H]1CCCN1C(=O)c1c(Cl)cccc1-2` it is 234 to 235 °C; for `CCOC(=O)c1cc(-c2ccccc2)n(-c2cccc(C(C)=O)c2)c1C` it is 102 to 104 °C.
The figure for `CCc1cc2c(s1)-n1c(nnc1CNC(=O)Nc1cccc(C)c1)CN=C2c1ccccc1Cl` is 260 to 262 °C; for `CCCCCC(CC(=O)Nc1cc(C(N)=O)ccc1C(C)(C)C)c1cc(C(N)=O)c(OC)cc1OC` (configuration not stated) it is 160 to 163 °C.
On to `CCOC(C)c1cc(C(=O)OC)c(N)cc1C(F)(F)F` (configuration not stated), for which the melting point lay in the range of 100 to 103 °C.
The figure for `CN(C)C(=O)c1nc(-c2ccncc2)nc2c1c1ccc(Cl)cc1n2C` is 268 to 269 °C; for `CCC(COC)Nc1nc(C)nc(N2CCc3cc(OC)cc(Cl)c32)c1I` (configuration not stated) it is 150 to 152 °C.
The figure for `O=C(NCCO)c1ccc(NS(=O)(=O)c2ccc(F)cc2)cn1` is 144 to 146 °C; for `CC(=O)Nc1c(C)nc(N)c(C(=O)NNS(=O)(=O)c2ccccc2)c1C` it is 216 to 218 °C; for `CC1(C)Oc2cc(N)c([N+](=O)[O-])cc2O1` it is 128 to 129 °C.
Next, `N#Cc1cc([N+](=O)[O-])ccc1N1CCNCC1CCO` (configuration not stated): 100 to 102 °C; `c1csc(-c2nc(COc3ccc(CCCCn4ccnc4)cc3)cs2)c1`: 108 to 109 °C; `COc1cc(Nc2nccc(-c3ccc(NCC(C)(C)CN(C)C)nc3)n2)cc(OC)c1OC`: 125 °C.
Consider `CCCCc1nc(Cl)c(CC(=O)O)n1Cc1ccc(NC(=O)c2ccccc2C(=O)O)cc1`, for which the melting point is 170 to 175 °C.
The figure for `O=Cc1c2ccccc2c(Cl)c2cccc(Cl)c12` is 180 to 183 °C.
Next, `COc1nc2ccc(Cl)cc2nc1Cl`: 113 to 114 °C; `CCC(O)c1oc(C)cc(=O)c1O` (configuration not stated): 134 to 136 °C.
Next, `CC(=O)CN1CCc2c(c(=O)oc3cc(C)c([N+](=O)[O-])cc23)C1`: 166 to 168 °C.
In turn, `N=C(N)NC(=O)Cn1c(Cc2ccccc2)ccc1-c1ccccc1` came in with a melting point of 82 to 84 °C.
The figure for `CC(C)(Br)C(=O)ON1C(=O)CCC1=O` is 72 to 74 °C.
Next, `COC(=O)c1c(C)[nH]c(C)c1C1=CC(=O)c2ncccc2C1=O`: 237 to 241 °C; `COc1ccc(NC(=O)OC(C)(C)C)c(C(=O)C2CC2)c1`: 96 to 97 °C; `O=[N+]([O-])c1ccc(Cl)c(NC(=S)NCCO)c1`: 158 °C.
Next, `CN1CCC(c2n[nH]c3cc(F)ccc23)CC1`: 217 to 220 °C.
For `Cc1ccccc1COC(=O)c1ccc(C(=O)N2Cc3ccccc3Cc3ccccc32)cc1`, the melting point is 140 to 142 °C.
Next, `CCCCc1ccc(C(=O)Oc2ccc(C(=O)O)cc2)cc1C12CC3CC(CC(C3)C1)C2`: 205 to 206 °C; `COc1cc2c(cc1OC)[C@@H](O)[C@H](CN1CCC3(CC1)C(=O)NCN3c1ccccc1)C2` (relative stereo): 189 to 190 °C; `CCCCc1c(F)c(F)c(NN)c(F)c1F`: 80 to 81 °C.
The molecule `COc1cc(-c2nc(-c3ccc(N(C)C)cc3)c(C)[nH]2)ccc1OP(=O)(O)O` showed a melting point of 226 to 230 °C.
The figure for `FC(F)Oc1cccc(-c2ccc3nnn(Cc4ccc5ncccc5c4)c3n2)c1` is 122 to 125 °C; for `COc1ccc(OC(C)=O)cc1[N+](=O)[O-]` it is 93 to 97 °C.
Next, `OC1CCCCC1Oc1ccc(Oc2ccccc2)cc1` (configuration not stated): 103 to 105 °C.
Turning to `COC(=O)c1ccc(/C=C(\C)c2ccc3c(c2)C(C)(C)CCO3)cc1`, the melting point was 92 to 95 °C.
With `Cn1nc(-c2cnc(N)nc2-c2ccc(Cl)cc2)ccc1=O`, the melting point was 264 °C.
The figure for `CC(=O)NCc1ccc(CN2CCN(c3ccccc3)CC2)cc1[N+](=O)[O-]` is 135 to 136 °C; for `OC1CCN(c2ccc(Br)cn2)CC1` it is 91 to 93 °C.
The figure for `CS(=O)(=O)c1ccc(C(CC2CCCC2)C(=O)Nc2cnc(C(C#N)=NO)cn2)cc1Cl` (configuration not stated) is 130 to 133 °C; for `COC(=O)Cn1c(=O)[nH]c(=O)c2ccc(Cl)cc21` it is 255 to 258 °C; for `CCOc1cc(OCC)nc(-c2nsc3ccc(-n4c(=O)cc(C(F)(F)F)n(C)c4=O)cc23)n1` it is 197 to 200 °C.
Next, `O=c1ccc(-c2ccccc2F)n[nH]1`: 173 to 175 °C; `Cc1ccc(S(=O)(=O)N(Cc2ccccc2)N(C)C(=O)C2CC(S)CN2S(=O)(=O)c2ccc3ccccc3c2)cc1` (configuration not stated): 82.5 °C; `CN(C)c1ccc(-c2ccnc3c(C(=O)c4cccs4)cnn23)cc1NC(=O)c1ccccc1Cl`: 220 to 222 °C.
As for `CC(Cc1nc(-c2ccccc2)nc2ccccc12)C(=O)NC(CO)c1ccccc1` (configuration not stated), the melting point turned out to be 199 °C.
On to `COc1cc2c(cc1OCc1ccccc1)C(C#N)(Sc1ccccc1)C2` (configuration not stated), for which the melting point was 109 to 110 °C.
The figure for `Cc1c(C)c2c(c(C)c1N)OC(C)(C)C2=O` is 150 to 151 °C; for `NC(=O)N(O)[C@@H]1COc2cc(OCc3ccccc3)ccc21` it is 192 to 193 °C; for `O=C(O)c1cn(-c2cccc(Br)c2)cn1` it is 205 to 207 °C.
Next, `Nc1ncc(-c2ccc(F)cc2F)nc1C(=O)Nc1cccnc1`: 232 to 234 °C; `CCCc1nc2c(N)nc3cc(OCCCNS(C)(=O)=O)ccc3c2n1CC(C)C`: 166 to 168 °C; `Cn1cc(-c2cc(Cl)cc(Cl)c2)c(=O)c(-c2cccc(C(F)(F)F)c2)c1`: 156 to 160 °C.
Next, `O=c1cc(O)n(-c2cccc(C(F)(F)F)c2)nc1-c1ccnn1-c1ccccc1`: 241 to 243 °C; `COc1ccc(CN2C(C(=O)Nc3ccccn3)=C(O)c3sc4ccccc4c3S2(=O)=O)cc1`: 188 to 190 °C.

These data come from a melting point compilation (Tetko et al.; mined from patent text by program, amines drawn as free bases though some values may be those of a salt).
